In patent US20260256807A1, “SUBSTITUTED PYRAZOLES AND IMIDAZOLES AS OREXIN RECEPTOR ANTAGONISTS COMPOSITION, METHODS FOR TREATING NEUROLOGICAL AND PSYCHOLOGICAL DISORDERS” (HAGER BIOSCIENCES, LLC, priority 2022, published 2026):

What was measured:
human orexin-1 receptor = target: T1, human orexin-1 receptor (Homo sapiens, UniProt O43613); test: Intracellular calcium (FLIPR) antagonist assay, CHO cells expressing human orexin-1 receptor, 3 nM orexin-A; assay type: cell-based; settings: CHO, 1 uM compound, orexin-A 3 nM, read-out: OXIR % Inh. @ 1 uM
T1 construct: expressed in transfected cells; host or cells: CHO cells (G418 selection)
T1 sequence (O43613 1-425): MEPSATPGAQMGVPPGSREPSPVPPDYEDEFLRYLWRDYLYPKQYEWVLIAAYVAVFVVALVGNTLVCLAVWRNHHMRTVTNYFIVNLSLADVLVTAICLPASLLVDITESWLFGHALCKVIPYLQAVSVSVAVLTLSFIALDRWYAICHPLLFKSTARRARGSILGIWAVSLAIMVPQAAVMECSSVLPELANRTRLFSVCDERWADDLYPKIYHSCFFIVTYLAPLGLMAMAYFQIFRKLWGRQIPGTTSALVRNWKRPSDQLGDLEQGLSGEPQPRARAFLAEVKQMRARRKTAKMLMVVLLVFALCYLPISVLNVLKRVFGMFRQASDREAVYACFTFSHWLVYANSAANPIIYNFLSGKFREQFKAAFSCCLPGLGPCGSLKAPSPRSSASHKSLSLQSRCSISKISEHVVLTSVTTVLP
Protocol: (§1) Antagonistic activities on both orexin receptors (i.e., to identify Orexin Receptor Antagonists) have been measured for each example compound using the in vitro assays (intracellular calcium measurements) as described herein. Other assays may also be used to identify Orexin Receptor Antagonists as would be understood by those of ordinary skill in the art. Chinese hamster ovary (CHO) cells expressing the human orexin-1 receptor and the human orexin-2 receptor, respectively, are grown in culture medium (Ham F-12 with L-Glutamine) containing 300 μg/mL G418, 100 U/mL penicillin, 100 μg/mL streptomycin and 10% heat inactivated fetal calf serum (FCS). The cells are seeded at 20′000 cells/well into 384-well black clear bottom sterile plates (Greiner). The seeded plates are incubated overnight at 37° C. in 5% CO2. Human orexin-A as an agonist is prepared as 1 mM stock solution in MeOH: water (1:1), diluted in HBSS containing 0.1% bovine serum albumin (BSA), NaHC03: 0.375 g/L and 20 mM HEPES for use in the assay at a final concentration of 3 nM.
(§2) Antagonists were prepared as 10 mM stock solution in DMSO, then diluted in 384-well plates using DMSO followed by a transfer of the dilutions into in HBSS containing 0.1% bovine serum albumin (BSA), NaHC03: 0.375 g/L and 20 mM HEPES. On the day of the assay, 50 μL of staining buffer (HBSS containing 1% FCS, 20 mM HEPES, NaHC03: 0.375 g/L, 5 mM probenecid (Sigma) and 3 μM of the fluorescent calcium indicator fluro-4 AM (1 mM stock solution in DMSO, containing 10% pluronic) is added to each well. The 384-well cell-plates are incubated for 50 min at 37° C. in 5% C02 followed by equilibration at RT for 30 min before measurement. Within the Fluorescent Imaging Plate Reader (FLIPR Tetra, Molecular Devices), potential Orexin Receptor Antagonists were added to the plate in a volume of 10 μl/well, incubated for 120 min and finally 10 μL/well of agonist is added. Fluorescence was measured for each well at 1 second intervals, and the height of each fluorescence peak compared to the height of the fluorescence peak induced by 3 nM orexin-A with vehicle in place of antagonist. The IC50 value (the concentration of compound needed to inhibit 50% of the agonistic response) was determined and normalized using the obtained IC50 value of an on-plate reference compound. Optimized conditions were achieved by adjustment of pipetting speed and cell splitting regime. The calculated IC50 values fluctuate depending on the daily cellular assay performance, as is known to those skilled in the art. In the case where IC50 values have been determined several times for the same compound, the geometric mean has been given.

human orexin-2 receptor = target: T2, human orexin-2 receptor (Homo sapiens, UniProt O43614); test: Intracellular calcium (FLIPR) antagonist assay, CHO cells expressing human orexin-2 receptor, 3 nM orexin-A; assay type: cell-based; settings: CHO, 1 uM compound, orexin-A 3 nM, read-out: OX2R % Inh. @ 1uM
T2 construct: expressed in transfected cells; host or cells: CHO cells (G418 selection)
T2 sequence (O43614 1-444): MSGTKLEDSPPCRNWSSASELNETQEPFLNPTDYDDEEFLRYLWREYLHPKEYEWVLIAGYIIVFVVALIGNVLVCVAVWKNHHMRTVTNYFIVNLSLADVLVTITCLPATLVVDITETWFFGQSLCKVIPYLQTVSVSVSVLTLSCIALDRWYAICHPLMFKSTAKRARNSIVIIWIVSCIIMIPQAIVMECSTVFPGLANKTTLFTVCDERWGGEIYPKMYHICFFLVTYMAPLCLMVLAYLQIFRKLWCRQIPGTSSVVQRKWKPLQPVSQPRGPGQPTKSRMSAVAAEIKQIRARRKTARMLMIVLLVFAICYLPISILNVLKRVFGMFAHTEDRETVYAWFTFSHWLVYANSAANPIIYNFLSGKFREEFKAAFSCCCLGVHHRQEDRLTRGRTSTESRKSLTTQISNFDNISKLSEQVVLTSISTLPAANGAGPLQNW
Protocol: as §1, §2

| inhibition at 1 µM (human orexin-1 receptor) | inhibition at 1 µM (human orexin-2 receptor) | Compound |
| --- | --- | --- |
| 40.4% | 68% | Cc1cc(C)nc(N2CC3CN(C(=O)C4C(c5ccccc5)=NN5C=CC=CC45)CC3C2)n1 (stereo not drawn) [Example 42] |
| 19.6% | 38.4% | Cc1cc(C)nc(N2CC3CN(C(=O)c4c(-c5ccccc5)nc5ccccn45)CC3C2)n1 (stereo not drawn) [Example 43] |
| 19.2% | 56.1% | Cc1cc(C)nc(N2CC3CN(C(=O)c4c(-c5ccccc5F)nn5ccccc45)CC3C2)n1 (stereo not drawn) [Example 44] |
| 78.2% | 27.1% | O=C(c1c(-c2ccccc2F)nn2ccccc12)N1CC2CN(c3ccc(C(F)(F)F)cn3)CC2C1 (stereo not drawn) [Example 45] |
| 53.9% | 14.6% | O=C(c1c(-c2ccc(F)cc2)nn2ccccc12)N1CC2CN(c3ccc(C(F)(F)F)cn3)CC2C1 (stereo not drawn) [Example 46] |
| 97% | 89% | O=C(c1c(-c2ccccc2F)nn2ccccc12)N1CC2CN(c3nc4cc(Cl)ccc4o3)CC2C1 (stereo not drawn) [Example 47] |
| 87.1% | 63.2% | O=C(c1c(-c2ccc(F)cc2)nn2ccccc12)N1CC2CN(c3nc4cc(Cl)ccc4o3)CC2C1 (stereo not drawn) [Example 48] |
| -5.54% | 12.8% | Cc1cc(C)nc(N2CC3CN(C(=O)c4c(-c5ccccc5F)nn5c4COCC5)CC3C2)n1 (stereo not drawn) [Example 49] |
| 9.55% | 1.62% | O=C(c1c(-c2ccccc2F)nn2c1COCC2)N1CC2CN(c3ccc(C(F)(F)F)cn3)CC2C1 (stereo not drawn) [Example 50] |
| 38.5% | 24.3% | O=C(c1c(-c2ccccc2F)nn2c1COCC2)N1CC2CN(c3nc4cc(Cl)ccc4o3)CC2C1 (stereo not drawn) [Example 51] |
| 100% | 98.7% | C[C@@H]1CCN(c2nc3cc(Cl)ccc3o2)CCN1C(=O)c1c(-c2ccccc2F)nn2ccccc12 [Example 52] |
| 102% | 98.8% | C[C@@H]1CCN(c2ccc(C(F)(F)F)cn2)CCN1C(=O)c1c(-c2ccccc2F)nn2ccccc12 [Example 53] |
| 91.9% | 99.7% | Cc1cc(C)nc(N2CC[C@@H](C)N(C(=O)c3c(-c4ccccc4F)nn4ccccc34)CC2)n1 [Example 54] |
| 97% | 37% | C[C@@H]1CCN(c2ccc(C(F)(F)F)cn2)CCN1C(=O)c1nc2ccccn2c1-c1ccccc1 [Example 55] |
| 97% | 27% | C[C@@H]1CCN(c2nc3cc(Cl)ccc3o2)CCN1C(=O)c1nc2ccccn2c1-c1ccccc1 [Example 56] |
| 98% | 28% | C[C@@H]1CCN(c2nc3cc(Cl)ccc3o2)CCN1C(=O)c1nn2c(c1-c1ccccc1)COCC2 [Example 57] |
| 94% | 30% | C[C@@H]1CCN(c2ccc(C(F)(F)F)cn2)CCN1C(=O)c1nn2c(c1-c1ccccc1)COCC2 [Example 58] |
| 99% | 97% | C[C@@H]1CCN(c2nc3cc(Cl)ccc3o2)CCN1C(=O)c1nn2c(c1-c1ccccc1)OCCC2 [Example 59] |
| 97% | 81% | C[C@@H]1CCN(c2ccc(C(F)(F)F)cn2)CCN1C(=O)c1nn2c(c1-c1ccccc1)OCCC2 [Example 60] |
| 100% | 64% | C[C@@H]1CCN(c2nc3cc(Cl)ccc3o2)CCN1C(=O)c1c(-c2ncccn2)nn2ccccc12 [Example 61] |

| inhibition at 1 µM (human orexin-1 receptor) | inhibition at 1 µM (human orexin-2 receptor) | Compound |
| --- | --- | --- |
| 100% | 44% | C[C@@H]1CCN(c2ccc(C(F)(F)F)cn2)CCN1C(=O)c1c(-c2ncccn2)nn2ccccc12 [Example 62] |
| 100% | 96% | C[C@@H]1CCN(c2nc3cc(Cl)ccc3o2)CCN1C(=O)c1c(-c2ccccn2)nn2ccccc12 [Example 63] |
| 100% | 85% | C[C@@H]1CCN(c2ccc(C(F)(F)F)cn2)CCN1C(=O)c1c(-c2ccccn2)nn2ccccc12 [Example 64] |
| 99% | 80% | C[C@@H]1CCN(c2nc3cc(Cl)ccc3o2)CCN1C(=O)c1c(-c2ccccc2)nn2cccnc12 [Example 65] |
| 99% | 83% | C[C@@H]1CCN(c2ccc(C(F)(F)F)cn2)CCN1C(=O)c1c(-c2ccccc2)nn2cccnc12 [Example 66] |
| 99% | 80% | C[C@@H]1CCN(c2nc3cc(Cl)ccc3o2)CCN1C(=O)c1nn2cccnc2c1-c1ccccc1 [Example 67] |
| 100% | 68% | C[C@@H]1CCN(c2ccc(C(F)(F)F)cn2)CCN1C(=O)c1nn2cccnc2c1-c1ccccc1 [Example 68] |
| 23% | 34% | Cc1cc(C)nc(N2CC[C@@H](C)N(C(=O)c3nc4ccccn4c3-c3ccccc3)CC2)n1 [Example 69] |
| 27% | 44% | Cc1cc(C)nc(N2CC[C@@H](C)N(C(=O)c3nn4c(c3-c3ccccc3)COCC4)CC2)n1 [Example 70] |
| 75% | 96% | Cc1cc(C)nc(N2CC[C@@H](C)N(C(=O)c3nn4ccccc4c3-c3ccccc3)CC2)n1 [Example 71] |
| 28% | 65% | Cc1cc(C)nc(N2CC[C@@H](C)N(C(=O)c3c(-c4ccccc4)nn4c3COCC4)CC2)n1 [Example 72] |
| 65% | 95% | Cc1cc(C)nc(N2CC[C@@H](C)N(C(=O)c3c(-c4ccccc4)nc4ccccn34)CC2)n1 [Example 73] |
| 74% | 95% | Cc1cc(C)nc(N2CC[C@@H](C)N(C(=O)c3nn4cccnc4c3-c3ccccc3)CC2)n1 [Example 74] |
| 79% | 100% | Cc1cc(C)nc(N2CC[C@@H](C)N(C(=O)c3c(-c4ccccn4)nn4ccccc34)CC2)n1 [Example 75] |
| 23% | 11% | COc1ccc(N2CC[C@@H](C)N(C(=O)c3nn4c(c3-c3ccccc3)COCC4)CC2)nc1 [Example 76] |
| 38% | 16% | COc1ccc(N2CC[C@@H](C)N(C(=O)c3nc4ccccn4c3-c3ccccc3)CC2)nc1 [Example 77] |
| 90% | 52% | COc1ccc(N2CC[C@@H](C)N(C(=O)c3nn4ccccc4c3-c3ccccc3)CC2)nc1 [Example 78] |
| 45% | 21% | COc1ccc(N2CC[C@@H](C)N(C(=O)c3nn4c(c3-c3ccccc3)OCCC4)CC2)nc1 [Example 79] |
| 78% | 39% | COc1ccc(N2CC[C@@H](C)N(C(=O)c3nn4cccnc4c3-c3ccccc3)CC2)nc1 [Example 80] |
